Results reported in patent US9045431B2, “Processes for the preparation of 5-HT2C receptor agonists” (Arena Pharmaceuticals, Inc., priority 2010, dated 2015).
“Also recorded” adds a separate entry of the source.

Legend:
[1] = Dynamic moisture sorption (DMS); assay type: physicochemical; settings: for DMS result (hygroscopicity / form conversion): isotherm 25° C., 10% RH to 90% or 95% RH
Experimental: Dynamic moisture-sorption (DMS) studies were conducted using a dynamic moisture-sorption analyzer, VTI Corporation, SGA-100. Samples were prepared for DMS analysis by placing 5 mg to 20 mg of a compound or a salt thereof in a tared sample holder. The sample was placed on the hang-down wire of the VTI balance. A drying step was run, typically at 40° C. and 0.5-1% RH for 1-2 h. The isotherm temperature is 25° C. Defined % RH holds typically ranged from 10% RH to 90% RH or 95% RH, with intervals of 10 to 20% RH. A % weight change smaller than 0.010% over a specified number of minutes (typically 10-20), or up to 2 h, whichever occurs first, is required before continuing to the next % RH hold. The water content of the sample equilibrated as described above was determined at each % RH hold.

[2] = Competitive slurry experiments / solution-mediated phase transformation (thermodynamic stability of crystal forms); assay type: physicochemical; settings: for relative thermodynamic stability among the anhydrous polymorphs: ambient / room temperature
Text: The thermodynamic relationships between the Compound 1 hydrochloride salt hemihydrate Form III and the anhydrous polymorphs of Compound 1 hydrochloride salt were established by competitive slurry experiments in acetonitrile and acetone at various aw, values.
At the critical aw, a given anhydrous form and Compound 1 hydrochloride salt hemihydrate Form III will have equal solubility and can coexist in equilibrium. Below the critical aw, the anhydrous form is more thermodynamically stable, thus less soluble. Above the critical water activity, Compound 1 hydrochloride salt hemihydrate Form III is more thermodynamically stable, thus less soluble. Solids from the competitive slurry experiments were identified by PXRD. Slurries with known aw values were used instead of humidity chambers because solution-mediated phase transformations (SMPTs) are much faster than vapor-mediated phase transformations, especially near the critical aw. […] FIG. 16 illustrates the critical aw of form Compound 1 hydrochloride salt hemihydrate Form III, with respect to Compound 1 hydrochloride salt Form I, and Compound 1 hydrochloride salt, IV.
For enantiotropic polymorphs, the temperature that marks the point at which two polymorphs have the same thermodynamic stability is called the transition temperature (Tt).

[3] = cited from earlier work; for reported side effect: in some patients
[4] = cited from earlier work
[5] = pivotal phase 3 program, treated for up to two years, fraction of patients
[6] = pivotal phase 3 program, up to two years
[7] = second phase 3 trial, top quartile

SMILES: C[C@H]1CNCCc2ccc(Cl)cc21.C[C@H]1CNCCc2ccc(Cl)cc21.Cl.Cl.O [(R)-8-Chloro-1-methyl-2,3,4,5-tetrahydro-1H-3-benzazepine Hydrochloride Hemihydrate Form III]
- change in crystalline form by PXRD after the DVS cycle ([1]; after DVS cycle): no change
- water adsorbed in DMS ([1]; at 90% RH): less than 0.5 wt %
- DMS result (hygroscopicity / form conversion) [1]: substantially non-hygroscopic
- DMS result (hygroscopicity / form conversion) ([1]; listed as Compound 1 Hydrochloride Salt Hemihydrate, Form III): FIG. 11: non-hygroscopic

SMILES: C[C@H]1CNCCc2ccc(Cl)cc21.Cl [Compound 1 hydrochloride salt Form I, (R)-8-Chloro-1-methyl-2,3,4,5-tetrahydro-1H-3-benzazepine Hydrochloride Salt Form I]
- DMS result (hygroscopicity / form conversion) [1]: complete conversion to Compound 1 hydrochloride hemihydrate Form III
- DMS result (hygroscopicity / form conversion) ([1]; listed as Compound 1 Hydrochloride Salt Form I): FIG. 3: Converts to Form III hemihydrate

SMILES: C[C@H]1CNCCc2ccc(Cl)cc21.Cl [Compound 1 hydrochloride salt Form II, (R)-8-Chloro-1-methyl-2,3,4,5-tetrahydro-1H-3-benzazepine Hydrochloride Salt Form II]
- DMS result (hygroscopicity / form conversion) [1]: converting to the hemihydrate Form III
- DMS result (hygroscopicity / form conversion) ([1]; listed as Compound 1 Hydrochloride Salt Form II): FIG. 7: Converts to Form III hemihydrate
- relative thermodynamic stability among the anhydrous polymorphs [2]: least stable anhydrous polymorph

SMILES: C[C@H]1CNCCc2ccc(Cl)cc21.Cl [Compound 1 hydrochloride salt Form IV, (R)-8-Chloro-1-methyl-2,3,4,5-tetrahydro-1H-3-benzazepine Hydrochloride Salt Form IV]
- DMS result (hygroscopicity / form conversion) [1]: converting to Compound 1 hydrochloride salt Form III
- DMS result (hygroscopicity / form conversion) ([1]; listed as Compound 1 Hydrochloride Salt Form IV): FIG. 14: Converts to hemihydrate
- relative thermodynamic stability among the anhydrous polymorphs [2]: most stable of the three anhydrous polymorphs; also recorded: more stable than Compound 1 hydrochloride salt Form I
- relative humidity at which the form is not thermodynamically favored over hemihydrate Form III ([2]; ambient temperature): ≥ 20 % RH

SMILES: CC(C)CC(N(C)C)C1(c2ccc(Cl)cc2)CCC1 (stereo not drawn) [Sibutramine]
- reported side effect [3]: raised blood pressure

SMILES: CCCCCCCCCCC[C@@H](C[C@@H]1OC(=O)[C@H]1CCCCCC)OC(=O)[C@H](CC(C)C)NC=O [Xenical™, Orlistat]
- reported side effect [3]: gastrointestinal distress

SMILES: CCN[C@@H](C)Cc1cccc(C(F)(F)F)c1 [d-fenfluramine]
- cardiac valve defects, fraction of patients ([3]; reports that led to withdrawal by the FDA in 1998): up to one third

SMILES: C[C@H]1CNCCc2ccc(Cl)cc21.Cl [lorcaserin, (R)-8-Chloro-1-methyl-2,3,4,5-tetrahydro-1H-3-benzazepine hydrochloride]
- adverse event that exceeded the placebo rate by 5% ([4]; clinical program): generally mild or moderate, transient headache
- depression or suicidal ideation ([4]; clinical program): no signal
- heart rate and blood pressure ([4]; clinical program): went down
- quality of life ([4]; clinical program): improved
- risk of cardiac valvulopathy ([4]; clinical program): did not increase
- secondary endpoints (body composition, lipids, cardiovascular risk factors, glycemic parameters) ([4]; compared to placebo): improved compared to placebo
- excess body weight lost ([4]; first phase 3 trial, based on a normal BMI of 25, fraction of excess body weight): about one-third
- average weight lost, of their weight ([4]; pivotal phase 3 program, on average): about 8%
- patients who achieved at least 5% weight loss [4, 5]: About two-thirds
- patients who achieved at least 10% weight loss [4, 5]: over one-third
- tolerability [4, 6]: excellent tolerability
- weight loss (in words) [4, 6]: significant weight loss
- average weight loss, top quartile of patients [4, 7]: 35 pounds
- average weight loss, top quartile of patients, of body weight [4, 7]: 16%
